Experimental data published in patent US12496329B2, “Methods of using and compositions including an incretin analog” (Eli Lilly and Company, priority 2021, dated 2025).
Read-outs that look alike come from different tables or passages of the source.

Assays:
[1] = Stability of analyte in stored plasma samples (bioanalytical validation); type: in vitro ADME, human; conditions: about -20° C. and about −70° C.
Procedure: (§1) Bioanalytical methods: plasma samples are analyzed at Q2 Solutions (Ithaca, NY). The samples are analyzed for the GGG tri-receptor agonist using a validated liquid chromatography high resolution mass spectrometry method. The lower limit of quantification is 1.00 ng/mL and the upper limit of quantification is 500.00 ng/ml. Samples above a limit of quantification are diluted and reanalyzed to yield results within the calibrated range. The intra-assay accuracy (% relative error) during validation ranges from −6.3% to 15.7%. The intra-assay precision (% relative standard deviation) during validation is ≤14.7%. The GGG tri-receptor agonist is stable for up to 96 days when stored at about-20° C. and about −70° C.

Phase 2 study for T2DM = type: in vivo, human; conditions: 16 week data; start 1 or 2 mg, steps of 1, 2, 3 or 4 mg to maximum 12 mg QW SC
From the text: Studies are designed to further evaluate the effectiveness and safety of the GGG tri-receptor agonist (SEQ ID NO: 1) in a larger population of individuals with diabetes. The study is a randomized, investigator- and participant-blind, placebo-controlled study conducted in individuals with diabetes (i.e., females or males aged 18-75 years, inclusive, with T2DM for at least 3 months and HbA1c at lead-in and screening of ≥7.0% and ≤10.5% and treated with diet and exercise alone or a stable dose of metformin for at least 3 months prior to screening, with stable body weight for 3 months prior to randomization and with a BMI of 25-50 kg/m^2 at screening).
Dose escalation of the GGG tri-receptor agonist is assessed over 36 weeks in cohorts administered the GGG tri-receptor agonist, dulaglutide or placebo. A first cohort of 50 individuals is administered 2.0 mg of the GGG tri-receptor agonist for Weeks 1-4, 4.0 mg for the Weeks 5-8, 8.0 mg for Weeks 9-12, and then 12.0 mg for Weeks 13-36. […] A third cohort of 20 individuals is administered 2.0 mg of the GGG tri-receptor agonist for Weeks 1-4, 4.0 mg for Weeks 5-8, and then 8.0 mg for Weeks 9-36. […]
Blood samples are collected pre-dose and at Week 24 for HbA1c. […] In addition, change in body weight (kg) is assessed from baseline to Week 24 and to Week 36. […]

[2] = SAD study: safety and tolerability; type: in vivo, human
From the text: (§2) Studies are designed to evaluate the safety, tolerability, pharmacodynamics (PD) and pharmacokinetics (PK) of the GGG tri-receptor agonist (SEQ ID NO:1) in healthy individuals. The SAD study is a randomized, investigator- and participant-blind, placebo-controlled, single-dose, single-site, dose-escalation study conducted in healthy individuals (e.g., overtly healthy females or males aged 21-65 years, inclusive, with a BMI 19-40 kg/m^2 at screening).
(§3) Six dose levels of the GGG tri-receptor agonist-0.1, 0.3, 1.0, 3.0, 4.5 and 6.0 mg—are explored in the SAD study, as well as placebo (i.e., 0.0 mg). A dose escalation of the GGG tri-receptor agonist is assessed in cohorts of healthy individuals (e.g., 6 individuals receiving the GGG tri-receptor agonist and 2 individuals receiving placebo per cohort). Staggered dosing is performed for each cohort, in which a new higher dose of the GGG tri-receptor agonist is administered. All injections are administered into the SC tissue of an abdominal wall, in a right or left lower quadrant.
Safety analyses: Safety parameters assessed during the study included: AEs (with special interest to GI AEs such as nausea, vomiting, and diarrhea), laboratory parameters (with special attention to hepatic and pancreatic biomarkers), physical examinations/medical assessments, vital signs and ECGs, BW, injection site reactions, hypersensitivity reactions, and glucose monitoring (with special attention to hypoglycemia).

[3] = SAD study: plasma pharmacokinetics after a single SC dose; type: in vivo; conditions: both sexes, human
From the text: as §2, §3
Blood samples are collected pre-dose and at 4 hours (hr), 10 hr, 14 hr, 24 hr (Day 1), 48 hr (Day 2), 72 hr (Day 3), 96 hr (Day 4), 120 hr ([…]), 168 hr (Day 7), 336 hr (Day 14), 672 hr (Day 28) and 1008 hr (Day 42) post-dose to determine plasma concentration of the GGG tri-receptor agonist. Plasma concentrations are used to compute PK parameters using standard non-compartmental methods in a validated software program (Phoenix WinNonlin Version 8.1).
as §1
Actual sampling times are used in the calculation of all PK parameters and concentration versus time profiles.
Concentration values below the quantifiable lower limit of the assay are excluded from the calculation of PK parameters, except for those prior to the first measurable concentration, which are set to a value of 0.
A concentration average is plotted for a given sample if two thirds of the individual data at the time point have quantifiable measurements. Concentrations at sampling times exceeding ±10% of the scheduled time ware excluded from the average concentration profiles.

For `CC[C@H](C)[C@H](NC(=O)[C@H](Cc1ccccc1)NC(=O)[C@H](C)NC(=O)C(C)(C)NC(=O)[C@H](CCC(N)=O)NC(=O)[C@H](C)NC(=O)[C@H](CCCCNC(=O)COCCOCCNC(=O)CC[C@H](NC(=O)CCCCCCCCCCCCCCCCCCC(=O)O)C(=O)O)NC(=O)[C@H](CCCCN)NC(=O)[C@H](CC(=O)O)NC(=O)[C@H](CC(C)C)NC(=O)[C@](C)(CC(C)C)NC(=O)[C@@H](NC(=O)[C@H](CO)NC(=O)[C@H](Cc1ccc(O)cc1)NC(=O)[C@H](CC(=O)O)NC(=O)[C@H](CO)NC(=O)[C@@H](NC(=O)[C@H](Cc1ccccc1)NC(=O)[C@@H](NC(=O)CNC(=O)[C@H](CCC(N)=O)NC(=O)C(C)(C)NC(=O)[C@@H](N)Cc1ccc(O)cc1)[C@@H](C)O)[C@@H](C)O)[C@@H](C)CC)C(=O)N[C@@H](CCC(=O)O)C(=O)N[C@@H](Cc1ccc(O)cc1)C(=O)N[C@@H](CC(C)C)C(=O)N[C@@H](CC(C)C)C(=O)N[C@@H](CCC(=O)O)C(=O)NCC(=O)NCC(=O)N1CCC[C@H]1C(=O)N[C@@H](CO)C(=O)N[C@@H](CO)C(=O)NCC(=O)N[C@@H](C)C(=O)N1CCC[C@H]1C(=O)N1CCC[C@H]1C(=O)N1CCC[C@H]1C(=O)N[C@@H](CO)C(N)=O` [GGG tri-receptor agonist, Y-Aib-QGTFTSDYSI-αMeL-LDKK((2-[2-(2-amino-ethoxy)-ethoxy]-acetyl)-(γGlu)-CO-(CH2)18-CO2H)AQ-Aib-AFIEYLLEGGPSSGAPPPS-NH2], the stability when stored [1] was “up to 96 days”, the “tolerability profile of dosing regimens” value (Phase 2 study for T2DM) was “acceptable tolerability profiles” and the “incidence of GI AEs (emesis, nausea)” value ([2]; Phase 1 dosing study, 6.0 mg or higher doses) was “higher-than-expected incidence of GI AEs”. The “individuals reporting TEAEs” value ([2]; single SC dose) was 97.1%, the injection-site reactions ([2]; single SC dose) was “No injection-site reactions” and the “individuals reporting TEAEs related to study treatment” value ([2]; single SC dose, 20 individuals) was 57.1%. The hypoglycemic episodes ([2]; single SC dose, all asymptomatic) was “low across all groups”, the “severity of AEs” value ([2]; single SC dose, dose-dependent) was “mild to moderate in severity” and the pulse rate ([2]; single SC dose, returned to baseline or near-baseline by Day 29) was “Dose-related increases in pulse rate”. For the same molecule, the tolerability ([2]; single SC doses of 0.1, 0.3, 1.0 and 3.0 mg) was “well tolerated”, the “incidence of GI events (vomiting, abdominal distension, nausea)” value ([2]; single SC doses of 4.5 and 6.0 mg) was “increased incidence of GI events” and the AUC(0-inf) ([3]; 0.1 mg single SC dose) was 3750 ng·h/mL. The CL/F ([3]; 0.1 mg single SC dose) was 0.445 mL/min, the Cmax ([3]; 0.1 mg single SC dose) was 11 ng/mL and the Tmax ([3]; 0.1 mg single SC dose) was 72 h. The AUC(0-inf) ([3]; 0.3 mg single SC dose) was 10300 ng·h/mL, the CL/F ([3]; 0.3 mg single SC dose) was 0.485 mL/min and the Cmax ([3]; 0.3 mg single SC dose) was 44.8 ng/mL. The Tmax ([3]; 0.3 mg single SC dose) was 72.2 h, the AUC(0-inf) ([3]; 1.0 mg single SC dose) was 28300 ng·h/mL and the CL/F ([3]; 1.0 mg single SC dose) was 0.59 mL/min. The Cmax ([3]; 1.0 mg single SC dose) was 110 ng/mL, the Tmax ([3]; 1.0 mg single SC dose) was 48 h and the AUC(0-inf) ([3]; 3.0 mg single SC dose) was 69100 ng·h/mL. The CL/F ([3]; 3.0 mg single SC dose) was 0.723 mL/min, the Cmax ([3]; 3.0 mg single SC dose) was 251 ng/mL and the Tmax ([3]; 3.0 mg single SC dose) was 14 h. It also gave an AUC(0-inf) ([3]; 4.5 mg single SC dose) of 130000 ng·h/mL, a CL/F ([3]; 4.5 mg single SC dose) of 0.577 mL/min and a Cmax ([3]; 4.5 mg single SC dose) of 589 ng/mL. The Tmax ([3]; 4.5 mg single SC dose) was 12 h, the AUC(0-inf) ([3]; 6.0 mg single SC dose) was 150000 ng·h/mL and the CL/F ([3]; 6.0 mg single SC dose) was 0.668 mL/min. It also gave a Cmax ([3]; 6.0 mg single SC dose) of 635 ng/mL, a Tmax ([3]; 6.0 mg single SC dose) of 24 h and a half-life ([3]; sc, 0.1 mg, 0.1 mg single SC dose, read-out: t½ (converted)) of 165 h. For the same molecule, the half-life ([3]; sc, 0.3 mg, 0.3 mg single SC dose, read-out: t½ (converted)) was 139 h, the half-life ([3]; sc, 1 mg, 1.0 mg single SC dose, read-out: t½ (converted)) was 134 h and the half-life ([3]; sc, 3 mg, 3.0 mg single SC dose, read-out: t½ (converted)) was 134 h. For the same molecule, the half-life ([3]; sc, 4.5 mg, 4.5 mg single SC dose, read-out: t½ (converted)) was 163 h, the half-life ([3]; sc, 6 mg, 6.0 mg single SC dose, read-out: t½ (converted)) was 149 h and the half-life ([3]; subcutaneous, single dose, read-out: mean terminal t½) was 120 to 168 h.
